In patent publication US20190284136A1, “INDOLINE DERIVATIVES” (ViiV HEALTHCARE UK LIMITED, priority 2016, published 2019) one finds IC50 data, which are given here for 19 compounds.

For the assay, the system named is HIV. In words: Table 1 IC50 of the examples (assay method not given; patent concerns inhibiting HIV replication). It is filed as cell-based. Particulars: Human immunodeficiency virus 1.
On to `COc1ccc(OC)c(C(=O)N2CCc3c2cc(C)c([C@H](OC(C)(C)C)C(=O)O)c3-c2cc(F)c3c(c2C)CCCO3)c1` (atropisomer, axis not shown) [Example 106, (S)-2-(tert-Butoxy)-2-((R)-1-(2,5-dimethoxybenzoyl)-4-(8-fluoro-5-methylchroman-6-yl)-6-methylindolin-5-yl)acetic acid], for which half-maximal inhibition (IC50) required 11 nM.
Under `COc1cncc(C(=O)N2CCc3c2cc(C)c([C@H](OC(C)(C)C)C(=O)O)c3-c2cc(F)c3c(c2C)CCCO3)c1` [Example 151, (2S)-2-(tert-Butoxy)-2-(4-(8-fluoro-5-methylchroman-6-yl)-1-(5-methoxynicotinoyl)-6-methylindolin-5-yl)acetic acid] stands 17 nM.
The same measure for `COc1cc(OC)cc(C(=O)N2CCc3c2cc(C)c([C@H](OC(C)(C)C)C(=O)O)c3-c2cc(F)c3c(c2C)CCCO3)c1` (atropisomer, axis not shown) [Example 63, (S)-2-(tert-Butoxy)-2-((R)-1-(3,5-dimethoxybenzoyl)-4-(8-fluoro-5-methylchroman-6-yl)-6-methylindolin-5-yl)acetic acid]: 4 nM; for `Cc1ccc(C)c(C(=O)N2CCc3c2cc(C)c([C@H](OC(C)(C)C)C(=O)O)c3-c2cc(F)c3c(c2C)CCCO3)c1` (atropisomer, axis not shown) [Example 69, (S)-2-(tert-Butoxy)-2-((R)-1-(2,5-dimethylbenzoyl)-4-(8-fluoro-5-methylchroman-6-yl)-6-methylindolin-5-yl)acetic acid]: 5 nM.
The same measure for `Cc1cc2c(c(-c3cc(F)c4c(c3C)CCCO4)c1[C@H](OC(C)(C)C)C(=O)O)CCN2C(=O)c1cc(Cl)ccc1Cl` (atropisomer, axis not shown) [Example 68, (S)-2-(tert-Butoxy)-2-((R)-1-(2,5-dichlorobenzoyl)-4-(8-fluoro-5-methylchroman-6-yl)-6-methylindolin-5-yl)acetic acid]: 13 nM; for `Cc1ccc(C(=O)N2CCc3c2cc(C)c([C@H](OC(C)(C)C)C(=O)O)c3-c2cc(F)c3c(c2C)CCCO3)cc1` (atropisomer, axis not shown) [Example 108, (S)-2-(tert-Butoxy)-2-((R)-4-(8-fluoro-5-methylchroman-6-yl)-6-methyl-1-(4-methylbenzoyl)indolin-5-yl)acetic acid]: 4 nM.
`COc1cc(C)cc(C(=O)N2CCc3c2cc(C)c([C@H](OC(C)(C)C)C(=O)O)c3-c2cc(F)c3c(c2C)CCCO3)c1` (atropisomer, axis not shown) [Example 89, (S)-2-(tert-Butoxy)-2-((R)-4-(8-fluoro-5-methylchroman-6-yl)-1-(3-methoxy-5-methylbenzoyl)-6-methylindolin-5-yl)acetic acid] displayed a half-maximal inhibitory concentration (IC50) of 3 nM.
`Cc1nc2cccc(C(=O)N3CCc4c3cc(C)c([C@H](OC(C)(C)C)C(=O)O)c4-c3cc(F)c4c(c3C)CCCO4)c2o1` (atropisomer, axis not shown) [Example 179, (S)-2-(tert-Butoxy)-2-((R)-4-(8-Fluoro-5-methylchroman-6-yl)-6-methyl-1-(2-methylbenzo[d]oxazole-7-carbonyl)indolin-5-yl)acetic acid]: the IC50 stood at 12 nM.
For `Cc1cc2c(c(-c3cc(F)c4c(c3C)CCCO4)c1[C@H](OC(C)(C)C)C(=O)O)CCN2C(=O)c1cccc2c1OCCC2` (atropisomer, axis not shown) [Example 166, (S)-2-(tert-butoxy)-2-((R)-1-(chromane-8-carbonyl)-4-(8-fluoro-5-methylchroman-6-yl)-6-methylindolin-5-yl)acetic acid], the IC50 was 4 nM.
Under `COc1cc(C(F)(F)F)ccc1C(=O)N1CCc2c1cc(C)c([C@H](OC(C)(C)C)C(=O)O)c2-c1cc(F)c2c(c1C)CCCO2` (atropisomer, axis not shown) [Example 163, (S)-2-(tert-Butoxy)-2-((R)-4-(8-fluoro-5-methylchroman-6-yl)-1-(2-methoxy-4-(trifluoromethyl)benzoyl)-6-methylindolin-5-yl)acetic acid] stands 9 nM; under `Cc1cc(F)ccc1C(=O)N1CCc2c1cc(C)c([C@H](OC(C)(C)C)C(=O)O)c2-c1cc(F)c2c(c1C)CCCO2` (atropisomer, axis not shown) [Example 62, (S)-2-(tert-Butoxy)-2-((R)-1-(4-fluoro-2-methylbenzoyl)-4-(8-fluoro-5-methylchroman-6-yl)-6-methylindolin-5-yl)acetic acid], 6 nM; under `COc1c(F)cccc1C(=O)N1CCc2c1cc(C)c([C@H](OC(C)(C)C)C(=O)O)c2-c1ccc(C)cc1` [Example 27, (S)-2-(tert-Butoxy)-2-(1-(3-fluoro-2-methoxybenzoyl)-6-methyl-4-(p-tolyl)indolin-5-yl)acetic acid], 7 nM.
As for `Cc1cc2c(c(-c3cc(F)c4c(c3C)CCCO4)c1[C@H](OC(C)(C)C)C(=O)O)CCN2C(=O)c1cccc2c1OCC2` (atropisomer, axis not shown) [Example 100, (S)-2-(tert-Butoxy)-2-((R)-1-(2,3-dihydrobenzofuran-7-carbonyl)-4-(8-fluoro-5-methylchroman-6-yl)-6-methylindolin-5-yl)acetic acid], 5 nM corresponded to half-maximal inhibition (IC50).
The same measure for `Cc1ccc(C(=O)N2CCc3c2cc(C)c([C@H](OC(C)(C)C)C(=O)O)c3-c2cc(F)c3c(c2C)CCCO3)cc1Cl` (atropisomer, axis not shown) [Example 115, (S)-2-(tert-Butoxy)-2-((R)-1-(3-chloro-4-methylbenzoyl)-4-(8-fluoro-5-methylchroman-6-yl)-6-methylindolin-5-yl)acetic acid]: 5 nM.
The same measure for `Cc1cc2c(c(-c3cc(F)c4c(c3C)CCCO4)c1[C@H](OC(C)(C)C)C(=O)O)CCN2C(=O)c1ccco1` (atropisomer, axis not shown) [Example 131, (S)-2-(tert-Butoxy)-2-((R)-4-(8-fluoro-5-methylchroman-6-yl)-1-(furan-2-carbonyl)-6-methylindolin-5-yl)acetic acid]: 110 nM.
Consider `Cc1cccc(C(=O)N2CCc3c2cc(C)c([C@H](OC(C)(C)C)C(=O)O)c3-c2cc(F)c3c(c2C)CCCO3)c1Cl` (atropisomer, axis not shown) [Example 135, (S)-2-(tert-Butoxy)-2-((R)-1-(2-chloro-3-methylbenzoyl)-4-(8-fluoro-5-methylchroman-6-yl)-6-methylindolin-5-yl)acetic acid], for which it took 4 nM to reach half-maximal inhibition (IC50).
The same measure for `Cc1ccc(-c2c3c(cc(C)c2C(OC(C)(C)C)C(=O)O)N(C(=O)c2cccc(F)c2)CCC3)cc1` (stereo not shown) [Example 214, 2-(tert-Butoxy)-2-(1-(3-fluorobenzoyl)-7-methyl-5-(p-tolyl)-1,2,3,4-tetrahydroquinolin-6-yl)acetic acid]: 3560 nM; for `Cc1ccc(-c2c3c(cc(C)c2[C@H](OC(C)(C)C)C(=O)O)N(C(=O)Cc2ccc(F)c(F)c2)CC3)cc1` [Example 34, (S)-2-(tert-Butoxy)-2-(1-(2-(3,4-difluorophenyl)acetyl)-6-methyl-4-(p-tolyl)indolin-5-yl)acetic acid]: 69 nM; for `Cc1ccccc1C(=O)N1CCc2c1cc(C)c([C@H](OC(C)(C)C)C(=O)O)c2-c1ccc2c(c1C)CCCO2` (atropisomer, axis not shown) [Example 188, (S)-2-(tert-Butoxy)-2-((R)-6-methyl-1-(2-methylbenzoyl)-4-(5-methylchroman-6-yl)indolin-5-yl)acetic acid]: 5 nM.

A word on the IC50: it is the midpoint of a concentration-inhibition curve. Read a low IC50 as higher potency.
